Experiments:
[1] = test system: Fgfr3Y367C/+ mice; experiment: Achondroplasia phenotype in Fgfr3Y367C/+ mice (whole body autoradiography, bone lengths); assay type: in vivo; details: dosing from day 1 of birth for 15 days; single agent or combination
Experimental: Animals are sacrificed on day 16 and tissues fixed for histologic or immunohistochemical analysis. Either compound is administered alone or in combination. The dose levels employed for Rosuvastatin are 0.25, 0.5, 1.0 and 2.0 mg/kg. […] The ratios ranges from 1:1-24:1
Reversion of phenotypical features are assessed using whole body autoradiography. The animals are placed on their right side, with the left hind leg more forward than the right, to allow both hind legs to be visible on the X-ray. Bones obtained at necropsy include femur, tibia, humerus, ulna, lumbar vertebra segment L 4-6 and are measured with a caliper.

[2] = test system: hypophysectomized (HYPOX) SPF Sprague Dawley rats; experiment: Femur and tibia length measured with a caliper in hypophysectomized rats; assay type: in vivo, rat; details: Somatropin alone, daily s.c.; relative to the vehicle group; day 30
Experimental: (§1) Method: This study was performed in order to test and compare the effect of Lys26 CNP-38 PEG4×10 kDa conjugate, Somatropin and combinations of the two compounds in an animal model relevant for investigating treatment of growth deficiency. The Somatropin (human growth hormone, hGH) was a United States Pharmacopeia (USP) Reference Standard and was prepared according to supplier instructions. Lys26 CNP-38 PEG4×10 kDa conjugate and Somatropin were administered alone or in combination via subcutaneous injection to hypophysectomized (HYPOX) SPF Sprague Dawley rats for a total of 29 days. The animals were dosed daily with Somatropin or vehicle, and weekly with Lys26 CNP-38 PEG4×10 kDa conjugate (at two different sites in animals receiving both test items on days 1, 8, 15, 22, and 29). The dose levels employed for Lys26 CNP-38 PEG4×10 kDa conjugate were 0.3, 1.0, and 2.0 mg/kg. Somatropin was employed at […] with a concentration of 10 μg/mL (˜8-10 μg/kg with animal weights between 100-120 g during the study period). The animals were weighed predose and once daily during the dosing period. […] Animals were sacrificed on day 30, and femur and tibia were trimmed and their length measured using a caliper. Hereafter, right tibia was fixed and processed for histologic and histomorphometric analysis.

[3] = test system: hypophysectomized (HYPOX) SPF Sprague Dawley rats; experiment: Histomorphometric measurement of proliferative zone width of right tibia growth plate; assay type: in vivo, rat; details: Somatropin alone versus control (vehicle)
Experimental: as §1

[4] = test system: hypophysectomized (HYPOX) SPF Sprague Dawley rats; experiment: Histologic evaluation of HE stained right tibia, width of the endochondral/ossification zone; assay type: in vivo, rat
Experimental: as §1

[5] = test system: hypophysectomized (HYPOX) SPF Sprague Dawley rats; experiment: Body weight gain in hypophysectomized rats; assay type: in vivo, rat
Experimental: as §1

Compound	reversal of the achondroplasic phenotype [1]	increase in femur length [2] [mm]	increase in tibia length [2] [mm]	width of the proliferative zone [3]	Number of animals, width of endochondral/ossification zone Normal (grade 0) ([4]; Somatropin alone)	width of the endochondral/ossification zone, histologic evaluation ([4]; compared to vehicle or to conjugate alone)	Average BWG (g) (±SE) ([5]; body weight gain day 0 (predose) to day 28, Somatropin alone, daily s.c. 10 μL/animal of 10 μg/mL (~8-10 μg/kg))	body weight gain ([5]; compared to vehicle treated group)
CC(C)c1nc(N(C)S(C)(=O)=O)nc(-c2ccc(F)cc2)c1/C=C/[C@@H](O)C[C@@H](O)CC(=O)O [Rosuvastatin]	beneficial effect on reversal of the achondroplasic phenotype is observed							
Somatropin: human growth hormone, hGH; United States Pharmacopeia (USP) Reference Standard		−0.04±0.08	0.55±0.17	not different from control (vehicle) animals	9	did not differ from background (vehicle)	4.44 (±0.94) g	Significant body weight gains
